US12485114B2, “Materials and methods useful to induce cancer cell death via methuosis or autophagy or a combination thereof” (The University of Toledo, priority 2017, dated 2025)

Legend:
cancer cells = assay: Vacuoles formation and cell death with necroptosis inhibitor necrostatin-1; format: cell-based; conditions: necrostatin-1 up to 30 μM
Experimental: BAPT-27 induces a type of death that is also independent of necrosis or necroptosis. The vacuoles formation and cell death was not inhibited by the addition of necrostatin-1, a necroptosis inhibitor, even at high concentrations (up to 30 μM).
BAPT-27 induces a type of death that is independent of necrosis or necroptosis. The vacuoles formation and cell death was not inhibited by the addition of necrostatin-1, a necroptosis inhibitor, even at high concentrations (up to 30 μM). (FIG. 44).

lysosomes = assay: Lysotracker red dye accumulation; format: cell-based
[1] = system: HCT116 colon cancer cells; assay: Colony formation assay; format: cell-based
Experimental: The cytotoxic efficacy of BAPT-27 was also confirmed by colony formation assay. Colony formation assay was used to determine the long-term capacities of the compound to inhibit cell proliferation and viability. The cells were treated for 2 or 3 days and allowed to grow in compound free medium for up to two weeks. […] It was also observed that a higher concentration of BAPT-27 was needed to reduce the colony formation at 48 h compared to longer treatment (72 h). (FIG. 28A).
The cells were treated for 2 or 3 days and allowed to grow in compound free medium for up to two weeks. […] The number of colonies formed/concentration at each time point is shown in the bar graph in FIG. 28B.

C57BL/6 mice = assay: Safety studies in C57BL/6 mice; format: in vivo
Experimental: FIG. 53A: C57BL/6J mice (8-10 weeks old) were treated intraperitoneally with indicated concentration of BAPT-27 or vehicle (saline) for 14 days. At the end of 14 days, blood was collected in heparin-coated tubes for blood chemistry analysis using abaxis veterinary chemistry analyzer (VETSCAN vs2).
FIG. 53B: Representative immunohistochemical slides are shown for kidney, liver, heart and brain for C57BL/6mice treated intraperitoneally with vehicle (saline) or BAPT-27 at 86.6 mg/kg. The whole tissue section and 10× magnification slides are shown.

macropinocytosis = assay: Lucifer yellow dye uptake (macropinocytosis); format: cell-based; conditions: 10 μM, 6 h treatment
Text: BAPT-27 induced vacuoles that combine both methuosis and autophagy characteristics. […] The author mechanism involved in this non-conventional cell death mechanism is a special type of […] that has been termed methuosis. The treatment of cells by BAPT-27 caused the displacement of the cytoplasm by vacuoles derived from macropinosomes. At early time points, the vacuoles are small in size. The small vacuoles then increase in number, and then fuse with each other over time forming larger vacuoles that cover the whole cytoplasm. Eventually, this causes a disturbance of the cell membrane and burst of the cells, release of fluids, detachment of cell, and death. […] Accordingly, alteration in both autophagic and methuosis mechanisms are involved in the BAPT-27 cell death process.

[2] = system: NSCLC cells resistant to apoptosis; assay: Activity in apoptosis-resistant NSCLC cells; format: cell-based
Text: (§1) (FIG. 46). NSCLC cells resistant to apoptosis are also sensitive to the activities of BAPT-27.

TFEB-mTOR pathway = assay: mTOR, Beclin-1 and LC3B-II autophagy related markers; format: cell-based
Text: (§2) Autophagosome and lysosomal homeostasis is governed by transcription factor EB (TFEB)—mTOR signaling pathways (TFEB-mTOR pathway). […] (FIG. 51A & FIG. 51B & FIG. 51C).

[3] = system: HCT15 colon cancer cell line; assay: Morphological assessment of vacuolization; format: cell-based
Text: (§3) The methuophagy inducing activities of BAPT-27 were also prominent in different colon cancer cell lines with different genetic profiles. […] (FIG. 42). However, the vacuoles formation was not prominent in normal epithelial colon cells (CRL-1459). (FIG. 42).

HCT-116 (colon cancer) = assay: Morphological assessment of vacuolization; format: cell-based
Text: as §3

[4] = system: HT29 colon cancer cell line; assay: Morphological assessment of vacuolization; format: cell-based
Text: as §3

HCT116 cells = assay: Electron microscopy of treated cells; format: cell-based
Experimental: The vacuoles are indicated by V in FIG. 31. The single membranes of the vacuoles are destroyed (indicated by arrows in FIG. 31), allowing small vacuoles to merge, forming bigger vacuoles.
The vacuoles are fluid filled with traces of membranes due to vacuoles fusion events. The nuclei are healthy with no signs of chromatin condensation and are unaffected at even a high concentration (30 μM). However, as the vacuoles coalesce and grow in size, the nuclei are pushed on the edges of the cells. The nuclei are indicated by white N, and the vacuoles are indicated by black arrows, in FIG. 32.
(FIG. 38). The ER is indicated by black arrows.

[5] = system: resistant colon cancer cell lines S1M180; assay: Reversal of multidrug resistance, combined with mitoxantrone; format: cell-based
Text: (§4) The cells became sensitive to the cytotoxicity of mitoxantrone when combined with BAPT-27. Further, BAPT-27 induced death in apoptosis resistant cell lines including colon cancer cell lines that are missing important pro-apoptotic genes Bax and Bak using well established models (HCT116, HCT116 Bax −/−, HCT116 Bak −/−, HCT116 Bax/Bak−/−). Accordingly, BAPT-27 represents a family of compounds that induce cell death in sensitive and resistant cancers, as well as those cancers that are refractory to death by conventional apoptosis inducing anticancer agents.
as §1

[6] = system: resistant lung cancer cell lines H460-MX20; assay: as above; format: cell-based
Text: as §4, §1

zebrafish = assay: Safety in zebrafish; format: in vivo; conditions: 100 μM
Experimental: The safety of BAPT-27 was studied in zebrafish. BAPT-27 is safe in zebrafish even at a very high concentration of 100 μM. The fish were healthy with no changes in their morphology, swim positions, or their cardiac parameters. (FIG. 52).

[7] = system: HCT116, HCT116 Bax −/−, HCT116 Bak −/−, HCT116 Bax/Bak−/−; assay: Death in apoptosis resistant colon cancer cell lines; format: cell-based; conditions: cell lines missing pro-apoptotic genes Bax and Bak
Text: as §4

[8] = system: Transcription factor EB (TFEB)— associated lysosomal and autophagy genes; assay: RNA-seq analysis of TFEB-associated lysosomal and autophagy genes; format: cell-based; conditions: HCT-116, 10 μM, 6 h
Text: as §2

[9] = cells became sensitive to mitoxantrone in combination

Sc1nnc(-c2ccncc2)n1/N=C/c1c[nH]c2ccccc12 [BAPT-27, 4-(((1H-Indol-3-Yl)Methylene)Amino)-5-(Pyridin-4-Yl)-4H-1,2,4-Triazole-3-Thiol]
inhibition of vacuoles formation and cell death by necrostatin-1 (cancer cells): not inhibited | lysotracker red dye inside the formed vacuoles (lysosomes): significant accumulation | colonies number and size ([1]; HCT116, 48 h and 72 h, especially after 72 h treatment): significant inhibition in the colonies number and size | colony formation ([1]; treated two and three days, then compound free medium up to two weeks): significantly inhibited colony formation | safety in mice (C57BL/6 mice; 86.6 mg/kg given intraperitoneally): safe | behavioral or phenotypic toxicity (C57BL/6 mice; up to 14 days): no behavioral or phenotypic toxicity | Lucifer yellow dye in formed vacuoles (macropinocytosis): Extensive accumulation | sensitivity to the activities of BAPT-27 [2]: sensitive | Beclin-1 level (TFEB-mTOR pathway): increased | LC3B-II level (TFEB-mTOR pathway): increased | mTOR level (TFEB-mTOR pathway): significantly downregulated | vacuolization [3]: extensive vacuoles formation | vacuolization (HCT-116 (colon cancer)): extensive vacuoles formation | vacuolization [4]: extensive vacuoles formation | formation of single membrane vacuoles (electron microscopy) (HCT116 cells; 10 μM): extensive formation of single membrane vacuoles | state of nuclei (electron microscopy) (HCT116 cells; high concentration (30 μM)): unaffected | state of endoplasmic reticulum (electron microscopy) (HCT116 cells; highest concentration 100 μM): normal and not stressed | delivery and sensitivity of doxorubicin and mitoxantrone [5]: increase the delivery and enhanced sensitivity | reversal of multidrug resistance [5, 9]: reversed multidrug resistance | delivery and sensitivity of doxorubicin and mitoxantrone [6]: increase the delivery and enhanced sensitivity | reversal of multidrug resistance [6, 9]: reversed multidrug resistance | changes in morphology, swim positions, or cardiac parameters (zebrafish): no changes | safety in zebrafish (zebrafish): safe | cell death in apoptosis resistant cell lines [7]: induced death | expression of TFEB-associated lysosomal and autophagy genes [8]: upregulated
